According to the NIST ThermoML archive (doi:10.1021/je049910c):
Several values for one entry are separate records, joined by “and”; a condition that tells them apart may be missing. Equal entries are not always repeated.

Key:
[1] = Crystal; DTA
[2] = Molar enthalpy of transition or fusion; details: Crystal; DSC
[3] = molar heat capacity at constant pressure; details: 101.33 kPa, Liquid

[Br-].[Br-].[Br-].[Tb+3] [terbium tribromide]
Details | Molar enthalpy of transition or fusion [kcal/mol] | Normal melting temperature [°C]
[1] | – | 830
[2] | 8.94 | –

[3]
Details | molar heat capacity at constant pressure
305 K | 95.25 J/K/mol
310 K | 96.04 J/K/mol
315 K | 96.89 J/K/mol
320 K | 96.99 J/K/mol
325 K | 97.03 J/K/mol
330 K | 96.84 J/K/mol
335 K | 97.05 J/K/mol
340 K | 97.06 J/K/mol
345 K | 98.47 J/K/mol
350 K | 98.03 J/K/mol
354 K | 96.27 J/K/mol
359 K | 96.56 J/K/mol
364 K | 95.16 J/K/mol
369 K | 95.49 J/K/mol
374 K | 95.66 J/K/mol
379 K | 94.73 J/K/mol
384 K | 96.58 J/K/mol
389 K | 94.78 J/K/mol
394 K | 96.69 J/K/mol
399 K | 97.48 J/K/mol
404 K | 97.16 J/K/mol
409 K | 97.43 J/K/mol
414 K | 96.37 J/K/mol
419 K | 97.26 J/K/mol
424 K | 96.24 J/K/mol
429 K | 97.6 J/K/mol
434 K | 98.83 J/K/mol
439 K | 98.92 J/K/mol
444 K | 98.73 J/K/mol
449 K | 100.77 J/K/mol
454 K | 101.24 J/K/mol
459 K | 102.68 J/K/mol
464 K | 101.53 J/K/mol
469 K | 101.69 J/K/mol
474 K | 101.67 J/K/mol
479 K | 101.42 J/K/mol
484 K | 102.61 J/K/mol
489 K | 102.5 J/K/mol
494 K | 101.69 J/K/mol
499 K | 102.17 J/K/mol
504 K | 102.99 J/K/mol
509 K | 102.18 J/K/mol
514 K | 100.27 J/K/mol
519 K | 96.88 J/K/mol
524 K | 98.84 J/K/mol
529 K | 97.84 J/K/mol
534 K | 99.15 J/K/mol
539 K | 97.79 J/K/mol
543 K | 97.7 J/K/mol
548 K | 97.62 J/K/mol
553 K | 98.93 J/K/mol
558 K | 98.58 J/K/mol
568 K | 98.34 J/K/mol
573 K | 98.95 J/K/mol
578 K | 98.65 J/K/mol
583 K | 99.14 J/K/mol
588 K | 98.88 J/K/mol
593 K | 100.12 J/K/mol
598 K | 98.39 J/K/mol
603 K | 99.23 J/K/mol
608 K | 100.21 J/K/mol
613 K | 99.21 J/K/mol
618 K | 100.47 J/K/mol
623 K | 100.62 J/K/mol
628 K | 99.41 J/K/mol
633 K | 99.03 J/K/mol
638 K | 100.94 J/K/mol
643 K | 100.9 J/K/mol
648 K | 106.81 J/K/mol
653 K | 99.85 J/K/mol and 102.18 J/K/mol
658 K | 101.21 J/K/mol
663 K | 102.1 J/K/mol
668 K | 99.19 J/K/mol
673 K | 98.9 J/K/mol
678 K | 101.61 J/K/mol
683 K | 98.15 J/K/mol
688 K | 99.94 J/K/mol
693 K | 98.07 J/K/mol
698 K | 97.98 J/K/mol
703 K | 96.7 J/K/mol
708 K | 97.79 J/K/mol
713 K | 99.85 J/K/mol
717 K | 99.17 J/K/mol
722 K | 99.02 J/K/mol
727 K | 99.08 J/K/mol
732 K | 99.98 J/K/mol
737 K | 99.41 J/K/mol
742 K | 101.93 J/K/mol
747 K | 100.1 J/K/mol
752 K | 104.88 J/K/mol
757 K | 100.82 J/K/mol
762 K | 101 J/K/mol
767 K | 101.85 J/K/mol
772 K | 102.41 J/K/mol
777 K | 103.2 J/K/mol
782 K | 102.71 J/K/mol
787 K | 101.9 J/K/mol
792 K | 101.02 J/K/mol
797 K | 101.52 J/K/mol
802 K | 101.51 J/K/mol
807 K | 99.68 J/K/mol
812 K | 103.05 J/K/mol
817 K | 103.73 J/K/mol
822 K | 102.94 J/K/mol
827 K | 103.83 J/K/mol
832 K | 99.83 J/K/mol
837 K | 98.83 J/K/mol
842 K | 101.98 J/K/mol
847 K | 103.78 J/K/mol
852 K | 103.32 J/K/mol
857 K | 99.15 J/K/mol
862 K | 102.98 J/K/mol
867 K | 101.94 J/K/mol
872 K | 105.24 J/K/mol
877 K | 101.33 J/K/mol
882 K | 103.27 J/K/mol
887 K | 97.19 J/K/mol
892 K | 97.82 J/K/mol
897 K | 98.26 J/K/mol
902 K | 101.94 J/K/mol
907 K | 97.88 J/K/mol
911 K | 97.43 J/K/mol
916 K | 100.85 J/K/mol
921 K | 97.21 J/K/mol
926 K | 100.73 J/K/mol
931 K | 95.04 J/K/mol
936 K | 99.59 J/K/mol
941 K | 98.67 J/K/mol
946 K | 99.44 J/K/mol
951 K | 102.23 J/K/mol
956 K | 103.73 J/K/mol
961 K | 99.7 J/K/mol
966 K | 98.27 J/K/mol
971 K | 101.79 J/K/mol
976 K | 102.55 J/K/mol
981 K | 97.92 J/K/mol
986 K | 104.37 J/K/mol
991 K | 100.42 J/K/mol
996 K | 107.17 J/K/mol
1001 K | 105.67 J/K/mol
1006 K | 110.34 J/K/mol
1011 K | 102.11 J/K/mol
1016 K | 100.99 J/K/mol
1021 K | 106.91 J/K/mol
1026 K | 105.87 J/K/mol
1031 K | 112.44 J/K/mol
1036 K | 99.98 J/K/mol
1041 K | 101.71 J/K/mol
1046 K | 101.91 J/K/mol
1051 K | 106.32 J/K/mol
1056 K | 110.86 J/K/mol
1061 K | 111.7 J/K/mol
